This is an account of results in US9663519B2, “Compounds useful as inhibitors of ATR kinase” (Vertex Pharmaceuticals Incorporated, priority 2013, dated 2017).

The test system of assay [1] is HCT116 colorectal cancer cells. Description: Cisplatin Sensitization Assay (96 h cell viability MTS). Format: cell-based. Particulars: Cisplatin sensitization value: concentration of compound required to reduce the IC50 of Cisplatin alone by at least 3-fold; HCT116, 96 h MTS. Here is the method:
Compounds can be screened for their ability to sensitize HCT116 colorectal cancer cells to Cisplatin using a 96 h cell viability (MTS) assay. […] Compounds and Cisplatin are then both added simultaneously to the cell media in 2-fold serial dilutions from a top final concentration of 10 μM as a full matrix of concentrations in a final cell volume of 200 μl, and the cells are then incubated at 37° C. in 5% CO2. After 96 h, 40 μl of MTS reagent (Promega G358a) is added to each well and the cells are incubated for 1 h at 37° C. in 5% CO2. Finally, absorbance is measured at 490 nm using a SpectraMax Plus 384 reader (Molecular Devices) and the concentration of compound required to reduce the IC50 of Cisplatin alone by at least 3-fold (to 1 decimal place) can be reported.

The next assay deals with full-length ATR (Homo sapiens (Human), UniProt Q13535). The assay can be described thus: ATR Inhibition Assay (radioactive-phosphate incorporation). The assay is classed as biochemical. The conditions noted are these: Ki(app); 5 nM full-length ATR, 10 μM ATP, 25° C. Here is the method:
Compounds were screened for their ability to inhibit ATR kinase using a radioactive-phosphate incorporation assay. Assays were carried out in a mixture of 50 mM Tris/HCl (pH 7.5), 10 mM MgCl2 and 1 mM DTT. Final substrate concentrations were 10 μM [γ-33P]ATP (3 mCi 33P ATP/mmol ATP, Perkin Elmer) and 800 μM target peptide (ASELPASQPQPFSAKKK (SEQ. ID NO: 1)).
Assays were carried out at 25° C. in the presence of 5 nM full-length ATR. An assay stock buffer solution was prepared containing all of the reagents listed above, with the exception of ATP and the test compound of interest. 13.5 μL of the stock solution was placed in a 96 well plate followed by addition of 2 μL of DMSO stock containing serial dilutions of the test compound (typically starting from a final concentration of 15 μM with 3-fold serial dilutions) in duplicate (final DMSO concentration 7%). The plate was pre-incubated for 10 minutes at 25° C. and the reaction initiated by addition of 15 μL [γ-33P]ATP (final concentration 10 μM).
The reaction was stopped after […] by the addition of 30 μL 0.1M phosphoric acid containing 2 mM ATP. A multiscreen phosphocellulose filter 96-well plate (Millipore, Cat no. MAPHN0B50) was pretreated with 100 μL 0.2M phosphoric acid prior to the addition of 45 μL of the stopped assay mixture. The plate was washed with 5×200 μL 0.2M phosphoric acid. After drying, 100 μL Optiphase ‘SuperMix’ liquid scintillation cocktail (Perkin Elmer) was added to the well prior to scintillation counting (1450 Microbeta Liquid Scintillation Counter, Wallac).
After removing mean background values for all of the data points, Ki(app) data were calculated from non-linear regression analysis of the initial rate data using the Prism software package (GraphPad Prism version 3.0cx for Macintosh, GraphPad Software, San Diego Calif., USA).

Chain of full-length ATR (Q13535 whole entry): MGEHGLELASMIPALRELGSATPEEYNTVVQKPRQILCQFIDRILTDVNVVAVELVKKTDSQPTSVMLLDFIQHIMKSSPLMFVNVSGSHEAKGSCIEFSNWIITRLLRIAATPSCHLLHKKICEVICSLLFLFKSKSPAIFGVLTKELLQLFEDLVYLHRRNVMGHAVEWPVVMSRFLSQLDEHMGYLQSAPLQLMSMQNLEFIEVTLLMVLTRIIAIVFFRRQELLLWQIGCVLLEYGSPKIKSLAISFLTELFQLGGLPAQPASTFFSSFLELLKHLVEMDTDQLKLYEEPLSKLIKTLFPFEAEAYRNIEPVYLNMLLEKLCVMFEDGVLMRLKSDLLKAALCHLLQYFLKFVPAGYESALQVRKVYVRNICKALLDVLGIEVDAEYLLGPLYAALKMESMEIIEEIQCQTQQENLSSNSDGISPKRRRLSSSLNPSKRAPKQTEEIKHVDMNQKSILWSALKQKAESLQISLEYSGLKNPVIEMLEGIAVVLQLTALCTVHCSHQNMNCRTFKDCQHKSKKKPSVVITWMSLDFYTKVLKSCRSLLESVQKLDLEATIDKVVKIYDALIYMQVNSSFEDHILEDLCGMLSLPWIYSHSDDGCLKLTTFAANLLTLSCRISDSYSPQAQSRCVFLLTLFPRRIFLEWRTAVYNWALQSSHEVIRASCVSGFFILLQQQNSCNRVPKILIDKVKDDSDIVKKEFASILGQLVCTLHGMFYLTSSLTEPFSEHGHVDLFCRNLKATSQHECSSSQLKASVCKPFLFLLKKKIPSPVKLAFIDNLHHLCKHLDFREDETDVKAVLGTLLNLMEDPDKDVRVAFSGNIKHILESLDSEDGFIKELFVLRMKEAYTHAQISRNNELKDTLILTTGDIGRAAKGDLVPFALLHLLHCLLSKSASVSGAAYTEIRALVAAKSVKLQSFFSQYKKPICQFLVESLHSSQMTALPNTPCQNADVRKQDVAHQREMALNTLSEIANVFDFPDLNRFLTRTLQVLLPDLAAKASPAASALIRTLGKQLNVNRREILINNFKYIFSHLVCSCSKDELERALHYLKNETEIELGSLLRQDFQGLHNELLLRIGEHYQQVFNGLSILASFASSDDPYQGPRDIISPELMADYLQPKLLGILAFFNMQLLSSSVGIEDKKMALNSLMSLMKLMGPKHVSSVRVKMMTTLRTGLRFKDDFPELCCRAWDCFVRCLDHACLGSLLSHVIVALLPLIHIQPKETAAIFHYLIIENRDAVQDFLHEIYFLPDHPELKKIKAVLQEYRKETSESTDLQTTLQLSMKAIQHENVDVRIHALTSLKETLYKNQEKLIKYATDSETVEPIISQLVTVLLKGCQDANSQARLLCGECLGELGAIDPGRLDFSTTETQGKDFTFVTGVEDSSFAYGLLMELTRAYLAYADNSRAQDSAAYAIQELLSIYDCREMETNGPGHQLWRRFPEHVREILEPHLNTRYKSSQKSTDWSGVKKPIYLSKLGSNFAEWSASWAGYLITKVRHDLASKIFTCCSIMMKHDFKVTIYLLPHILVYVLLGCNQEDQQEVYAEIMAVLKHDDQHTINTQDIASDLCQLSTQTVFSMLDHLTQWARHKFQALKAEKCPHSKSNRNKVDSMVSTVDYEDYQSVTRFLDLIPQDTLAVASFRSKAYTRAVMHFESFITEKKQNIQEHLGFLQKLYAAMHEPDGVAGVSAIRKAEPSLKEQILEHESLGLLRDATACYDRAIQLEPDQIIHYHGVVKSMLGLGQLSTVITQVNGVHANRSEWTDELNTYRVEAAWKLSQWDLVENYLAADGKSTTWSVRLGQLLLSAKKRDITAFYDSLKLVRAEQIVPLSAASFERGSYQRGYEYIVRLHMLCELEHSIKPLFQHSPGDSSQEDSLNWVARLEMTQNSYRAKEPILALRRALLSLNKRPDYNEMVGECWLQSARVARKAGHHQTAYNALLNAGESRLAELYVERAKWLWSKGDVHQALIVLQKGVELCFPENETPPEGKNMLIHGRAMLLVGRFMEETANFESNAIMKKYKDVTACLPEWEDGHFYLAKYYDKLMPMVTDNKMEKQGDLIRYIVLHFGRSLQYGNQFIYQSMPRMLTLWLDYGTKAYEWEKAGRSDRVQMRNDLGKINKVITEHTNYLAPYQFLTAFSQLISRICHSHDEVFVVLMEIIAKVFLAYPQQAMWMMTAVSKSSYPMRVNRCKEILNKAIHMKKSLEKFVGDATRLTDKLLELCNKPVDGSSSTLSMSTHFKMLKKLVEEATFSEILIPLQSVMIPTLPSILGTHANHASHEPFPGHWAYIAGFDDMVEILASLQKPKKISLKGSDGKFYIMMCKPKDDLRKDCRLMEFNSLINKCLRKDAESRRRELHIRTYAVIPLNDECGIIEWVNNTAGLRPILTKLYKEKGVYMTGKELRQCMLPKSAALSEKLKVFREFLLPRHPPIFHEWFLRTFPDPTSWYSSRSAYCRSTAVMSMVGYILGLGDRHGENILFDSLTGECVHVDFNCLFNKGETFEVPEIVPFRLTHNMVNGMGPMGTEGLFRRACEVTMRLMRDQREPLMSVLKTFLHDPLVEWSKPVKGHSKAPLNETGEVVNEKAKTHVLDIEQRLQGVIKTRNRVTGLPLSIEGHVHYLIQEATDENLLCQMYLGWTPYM

With `COc1ccncc1NC(=O)c1c(N)nn2cc3c(nc12)CCN(CCF)C3` [Compound I-19, 2-amino-7-(2-fluoroethyl)-N-(4-methoxypyridin-3-yl)-5,6,7,8-tetrahydropyrazolo[1,5-a]pyrido[4,3-d]pyrimidine-3-carboxamide], the “Synergy with Cisplatin” value in assay [1] is “++ (Cisplatin sensitization value >0.02 μM but <0.2 μM)”. Besides, the Ki on full-length ATR lay in the range of 0.01 to 1 µM.

As for `Cc1ccncc1NC(=O)c1c(N)nn2cc3c(nc12)CCN(C1COC1)C3` [Compound I-20, 2-amino-N-(4-methylpyridin-3-yl)-7-(oxetan-3-yl)-5,6,7,8-tetrahydropyrazolo[1,5-a]pyrido[4,3-d]pyrimidine-3-carboxamide], the “Synergy with Cisplatin” value in assay [1] is on record as “++ (Cisplatin sensitization value >0.02 μM but <0.2 μM)”. Moreover, at full-length ATR, the Ki is 0.01 to 1 µM.

As for `Nc1nn2cc3c(nc2c1C(=O)Nc1cnccc1C1CC1)CCN(C1COC1)C3` [Compound I-21, 2-amino-N-(4-cyclopropylpyridin-3-yl)-7-(oxetan-3-yl)-5,6,7,8-tetrahydropyrazolo[1,5-a]pyrido[4,3-d]pyrimidine-3-carboxamide], in assay [1], the “Synergy with Cisplatin” value is listed as “++ (Cisplatin sensitization value >0.02 μM but <0.2 μM)”. At full-length ATR, the Ki lay within 0.01 to 1 µM.

Turning to `Nc1nn2cc3c(nc2c1C(=O)Nc1cncc(F)c1C1CC1)CCN(C1COC1)C3` [Compound I-22, 2-amino-N-(4-cyclopropyl-5-fluoropyridin-3-yl)-7-(oxetan-3-yl)-5,6,7,8-tetrahydropyrazolo[1,5-a]pyrido[4,3-d]pyrimidine-3-carboxamide], the “Synergy with Cisplatin” value in assay [1] was “++ (Cisplatin sensitization value >0.02 μM but <0.2 μM)”. For the same compound, the Ki at full-length ATR was in the range of 0.01 to 1 µM.

In the case of `COc1ccncc1NC(=O)c1c(N)nn2cc3c(nc12)CCN(C1COC1)C3` [Compound I-24, 2-amino-N-(4-methoxypyridin-3-yl)-7-(oxetan-3-yl)-5,6,7,8-tetrahydropyrazolo[1,5-a]pyrido[4,3-d]pyrimidine-3-carboxamide], the “Synergy with Cisplatin” value in assay [1] is given as “++ (Cisplatin sensitization value >0.02 μM but <0.2 μM)”. Besides, the Ki on full-length ATR lay in the range of 0.01 to 1 µM.

For the compound `COc1cc(Cl)ncc1NC(=O)c1c(N)nn2cc3c(nc12)CCN(C1COC1)C3` [Compound I-25, 2-amino-N-(6-chloro-4-methoxypyridin-3-yl)-7-(oxetan-3-yl)-5,6,7,8-tetrahydropyrazolo[1,5-a]pyrido[4,3-d]pyrimidine-3-carboxamide], in assay [1], the “Synergy with Cisplatin” value is reported as “++ (Cisplatin sensitization value >0.02 μM but <0.2 μM)”. Also, the Ki on full-length ATR was in the range of 0.01 to 1 µM.

As to `Nc1nn2cc3c(nc2c1C(=O)Nc1cncnc1C1CC1)CCN(C1COC1)C3` [Compound I-26, 2-amino-N-(4-cyclopropylpyrimidin-5-yl)-7-(oxetan-3-yl)-5,6,7,8-tetrahydropyrazolo[1,5-a]pyrido[4,3-d]pyrimidine-3-carboxamide], in assay [1], the “Synergy with Cisplatin” value is recorded as “+ (Cisplatin sensitization value >0.2 μM but <5 μM)”. For the same compound, on full-length ATR, the Ki lay in the range of 1 to 5 µM.

On to `COc1ncncc1NC(=O)c1c(N)nn2cc3c(nc12)CCN(C1COC1)C3` [Compound I-27, 2-amino-N-(4-methoxypyrimidin-5-yl)-7-(oxetan-3-yl)-5,6,7,8-tetrahydropyrazolo[1,5-a]pyrido[4,3-d]pyrimidine-3-carboxamide], for which, in assay [1], the “Synergy with Cisplatin” value is on record as “++ (Cisplatin sensitization value >0.02 μM but <0.2 μM)”. Also, on full-length ATR, the Ki lay within 0.01 to 1 µM.

Consider `COCCN1CCc2nc3c(C(=O)Nc4cnccc4C4CC4)c(N)nn3cc2C1` [Compound I-28, 2-amino-N-(4-cyclopropylpyridin-3-yl)-7-(2-methoxyethyl)-5,6,7,8-tetrahydropyrazolo[1,5-a]pyrido[4,3-d]pyrimidine-3-carboxamide], for which the “Synergy with Cisplatin” value in assay [1] is “++ (Cisplatin sensitization value >0.02 μM but <0.2 μM)”. For the same compound, the Ki on full-length ATR lay within 0.01 to 1 µM.

Consider `CN1CCc2nc3c(C(=O)Nc4cnccc4OCC(F)(F)F)c(N)nn3cc2C1` [Compound I-30, 2-amino-7-methyl-N-(4-(2,2,2-trifluoroethoxy)pyridin-3-yl)-5,6,7,8-tetrahydropyrazolo[1,5-a]pyrido[4,3-d]pyrimidine-3-carboxamide], for which, in assay [1], the “Synergy with Cisplatin” value is “+++ (Cisplatin sensitization value of <0.02 μM)”. For the same compound, the Ki at full-length ATR lay within 0.01 to 1 µM.

As for `COc1ccncc1NC(=O)c1c(N)nn2cc3c(nc12)C(C)(C)CNC3` [Compound I-31, 2-amino-N-(4-methoxypyridin-3-yl)-5,5-dimethyl-5,6,7,8-tetrahydropyrazolo[1,5-a]pyrido[4,3-d]pyrimidine-3-carboxamide], in assay [1], the “Synergy with Cisplatin” value is reported as “++ (Cisplatin sensitization value >0.02 μM but <0.2 μM)”. In addition, the Ki on full-length ATR lay in the range of 0.01 to 1 µM.

With `Cc1nsc(NC(=O)c2c(N)nn3cc4c(nc23)CCN(C2COC2)C4)c1C1CC1` [Compound I-33, 2-amino-N-(4-cyclopropyl-3-methylisothiazol-5-yl)-7-(oxetan-3-yl)-5,6,7,8-tetrahydropyrazolo[1,5-a]pyrido[4,3-d]pyrimidine-3-carboxamide], in assay [1], the “Synergy with Cisplatin” value is on record as “+++ (Cisplatin sensitization value of <0.02 μM)”. Moreover, the Ki on full-length ATR lay in the range of 0.01 to 1 µM.
